# From article PMC3269379, “The Host-Pathogen interaction of human cyclophilin A and HIV-1 Vpr requires specific N-terminal and novel C-terminal domains” (BMC Structural Biology, 2011)
# “Also recorded” adds a separate entry of the source. Where a SMILES comes first, the peptide text is derived from it.
# Experiments:
# CypA [1] = biological target: T1, CypA (Homo sapiens, UniProt P62937); assay: SPR binding of Vpr and Vpr peptides to immobilized CypA; conditions: for binding to CypA in SPR sensorgrams (in words): peptides 0-8 μM over CM5 chip with 150 RU CypA (Figure 2)
# T1 construct: made in house
# T1 sequence (P62937 whole entry): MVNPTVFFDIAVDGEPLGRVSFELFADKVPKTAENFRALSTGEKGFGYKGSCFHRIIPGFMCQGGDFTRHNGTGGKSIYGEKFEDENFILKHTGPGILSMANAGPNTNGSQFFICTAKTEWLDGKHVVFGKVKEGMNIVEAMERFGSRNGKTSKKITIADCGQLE
# Procedure: SPR [42-44] measurements were performed at 25°C on a Biacore T100 instrument (Biacore AB, Uppsala, Sweden) equipped with CM5 research-grade sensor chips. CypA was immobilized to 150, 180, 918 and 5003 RU, using standard amine-coupling chemistry. The reference flow cells were treated correspondingly except for CypA immobilization. The synthetic full length Vpr, as well as fragments and mutants thereof, were dissolved at four different concentrations in the running buffer (HBS-EP buffer pH 7.4; 10 mM HEPES, 150 mM NaCl, 3.4 mM EDTA and 0.005% surfacant). The samples were injected over the flow cells at a flow rate of 30 μl/min. Data were collected at 2.5 Hz during 60 s association and 180 s or 240 s dissociation phases, and were automatically corrected for bulk buffer effects and non-specific binding of Vpr peptides to the chip matrix. All SPR data was acquired from two individual series of experiments using four different analyte concentrations with a duplicate injection of one of the individual concentrations.
# Affinity, association and dissociation rate constants were obtained from sensorgrams by the Biacore T100 evaluation software version 2.0.1 in accordance with the global curve fit model. Sensorgram data for the four different concentrations were fitted to several binding models including 1:1 (Langmuir) binding model (A+B ↔ AB), two-state reaction (conformational change) model (A+B ↔ AB ↔ AB*), heterogeneous ligand (HL) model (interaction one: A+B1 ↔ AB1; interaction two: A+B2 ↔ AB2) and bivalent analyte (BA) model (A+B ↔ AB; AB+B↔ABB). Kinetic constants were calculated for the best fitted model.
# CypA [2] = biological target: T1, CypA; assay: Isothermal titration calorimetry of Vpr^75-90 binding to CypA; conditions: ITC; mean ± S.E of two titrations; read-out: Ka (converted)
# Procedure: ITC was performed in a VP-ITC titration calorimeter (MicroCal Inc.). […] The mean of the heat from the last 5 injections was subtracted from the raw data to correct for experimental heat dilution. The binding isotherms were fitted to a one site binding model using the Origin v7 software (OriginLab). Chi-square minimization was performed iteratively to obtain the best-fit parameters.
Molecule,binding to CypA in SPR sensorgrams (in words) (CypA [1]),other results
CC[C@H](C)[C@H](NC(=O)[C@H](CCCNC(=N)N)NC(=O)[C@H](Cc1ccccc1)NC(=O)[C@H](Cc1c[nH]cn1)NC(=O)[C@@H](NC(=O)[C@@H](N)Cc1ccccc1)[C@@H](C)CC)C(=O)NCC(=O)N[C@@H](CS)C(=O)N[C@@H](CCCNC(=N)N)C(=O)N[C@@H](Cc1c[nH]cn1)C(=O)O [Vpr^69-78] (H-FIHFRIGCRH-OH; N-terminus and C-terminus assumed),interacted only weakly,–
CC[C@H](C)[C@H](NC(=O)[C@H](CCCNC(=N)N)NC(=O)[C@H](CO)NC(=O)[C@H](Cc1c[nH]cn1)NC(=O)[C@H](CCCNC(=N)N)NC(=O)[C@H](CS)NC(=O)CN)C(=O)NCC(=O)N[C@H](C(=O)N[C@H](C(=O)O)[C@@H](C)O)C(C)C [Vpr^75-84] (H-GCRHSRIGVT-OH; N-terminus and C-terminus assumed),interacted only weakly; also recorded: fails to bind,–
"CC[C@H](C)[C@H](NC(=O)CNC(=O)[C@@H](NC(=O)[C@H](C)NC(=O)[C@H](CO)NC(=O)[C@H](Cc1c[nH]cn1)NC(=O)[C@H](CCC(N)=O)NC(=O)[C@H](CS)NC(=O)CN)[C@@H](C)CC)C(=O)N[C@H](C(=O)N[C@@H](CCCNC(=N)N)C(=O)N[C@@H](CCC(N)=O)C(=O)N[C@@H](CCCNC(=N)N)C(=O)N[C@@H](CCCNC(=N)N)C(=O)N[C@@H](C)C(=O)N[C@@H](CCCNC(=N)N)C(=O)O)[C@@H](C)CC [Vpr^75-90 (R76Q, V83I, R80A, T84I)] (H-GCQHSAIGIIRQRRAR-OH)",–,Kd (CypA [1]): 2700 ± 1900 nM
"CC[C@H](C)[C@H](NC(=O)CNC(=O)[C@@H](NC(=O)[C@H](CCCNC(=N)N)NC(=O)[C@H](CO)NC(=O)[C@H](Cc1c[nH]cn1)NC(=O)[C@H](CCC(N)=O)NC(=O)[C@H](CS)NC(=O)CN)[C@@H](C)CC)C(=O)N[C@H](C(=O)N[C@@H](CCCNC(=N)N)C(=O)N[C@@H](CCC(N)=O)C(=O)N[C@@H](CCCNC(=N)N)C(=O)N[C@@H](CCCNC(=N)N)C(=O)N[C@@H](C)C(=O)N[C@@H](CCCNC(=N)N)C(=O)O)[C@@H](C)CC [Vpr^75-90 (R76Q, V83I, T84I)] (H-GCQHSRIGIIRQRRAR-OH)",–,Kd (CypA [1]): 4700 ± 2600 nM
CC[C@H](C)[C@H](NC(=O)[C@H](CCCNC(=N)N)NC(=O)[C@H](CO)NC(=O)[C@H](Cc1c[nH]cn1)NC(=O)[C@H](CCCNC(=N)N)NC(=O)[C@H](CS)NC(=O)CN)C(=O)NCC(=O)N[C@H](C(=O)N[C@H](C(=O)N[C@@H](CCCNC(=N)N)C(=O)N[C@@H](CCC(N)=O)C(=O)N[C@@H](CCCNC(=N)N)C(=O)N[C@@H](CCCNC(=N)N)C(=O)N[C@@H](C)C(=O)N[C@@H](CCCNC(=N)N)C(=O)O)[C@@H](C)O)C(C)C [Vpr^75-90],–,Kd (CypA [2]): 76.9 nM
CC[C@H](C)[C@H](N)C(=O)NCC(=O)N[C@H](C(=O)N[C@H](C(=O)N[C@@H](CCCNC(=N)N)C(=O)N[C@@H](CCC(N)=O)C(=O)N[C@@H](CCCNC(=N)N)C(=O)N[C@@H](CCCNC(=N)N)C(=O)N[C@@H](C)C(=O)N[C@@H](CCCNC(=N)N)C(=O)O)[C@@H](C)O)C(C)C [Vpr^81-90] (H-IGVTRQRRAR-OH; N-terminus and C-terminus assumed),interacted only weakly,–
C[C@H](NC(=O)CNC(=O)[C@H](CC(N)=O)NC(=O)[C@H](CCCNC(=N)N)NC(=O)[C@H](C)NC(=O)[C@H](CCCNC(=N)N)NC(=O)[C@@H](N)CCCNC(=N)N)C(=O)N[C@@H](CO)C(=O)N[C@@H](CCCNC(=N)N)C(=O)N[C@@H](CO)C(=O)O [Vpr^87-96] (H-RRARNGASRS-OH; N-terminus and C-terminus assumed),interacted only weakly,–
Vpr^30-40: N-terminal peptide containing the N-terminal binding region of Vpr to CypA (AVRHFPRIWLH),–,"binding to CypA in SPR sensorgrams, comparison (in words) (CypA [1]; analyte 1-8 μM, chip with 180 RU CypA (Figure 1B, C)): lower affinity"
